Experimental findings from ChEMBL document CHEMBL5120838, “Synthesis and biological evaluation of geniposide derivatives as inhibitors of hyperuricemia, inflammatory and fibrosis” (Eur J Med Chem, 2022) are described below.

SMILES strings stand for the structures. Activity calls are given as the source filed them. No cut-off for these calls is given here.

For test [1], the target named is Xanthine dehydrogenase/oxidase (Bos taurus, UniProt P80457). Description: Inhibition of bovine XOD assessed as inhibition of uric acid formation using xanthine as substrate preincubated with enzyme for 5 mins followed by substrate addition and measured for 30 mins by microplate reader analysis.
Test [2] relates to Mus musculus. Description: Anti-hyperuricemic activity against adenine and potassium oxonate-induced hyperuricemia Kunming mouse model assessed as reduction in serum uric acid level at 20 mg/kg, po administered via gavage once daily for 2 weeks (reference value: 318.16 +/- 3.31 uM). The test is classed as functional.
Test [3] deals with Mus musculus. Description: Anti-hyperuricemic activity against adenine and potassium oxonate-induced hyperuricemia Kunming mouse model assessed as reduction in serum creatinine level at 20 mg/kg, po administered via gavage once daily for 2 weeks (reference value: 87.62 +/- 0.67 uM). The test is classed as functional.
The test system of test [4] is Mus musculus. Kind of test: Anti-hyperuricemic activity against adenine and potassium oxonate-induced hyperuricemia Kunming mouse model assessed as blood urea nitrogen level at 20 mg/kg, po administered via gavage once daily for 2 weeks (reference value: 9.88 +/- 1.21 mM). The test is classed as functional.
In test [5] the test system is Mus musculus. Description: Nephroprotective activity against adenine and potassium oxonate-induced hyperuricemia Kunming mouse model assessed as reduction in renal tubule dilation at 20 mg/kg, po administered via gavage and measured after 21 days by hematoxylin-eosin and Masson trichrome staining based optical microscopic analysis. Format: functional, organism-based. The following applies: time 21.0 day.

Test [6] relates to Mus musculus. Description: Nephroprotective activity against adenine and potassium oxonate-induced hyperuricemia Kunming mouse model assessed as reduction in cytoplasmic vacuolation of renal tubular epithelial cells at 20 mg/kg, po administered via gavage and measured after 21 days by hematoxylin-eosin and Masson trichrome staining based optical microscopic analysis. Format: functional, organism-based. To be noted: time 21.0 day.

The test system of test [7] is Mus musculus. Description: Nephroprotective activity against adenine and potassium oxonate-induced hyperuricemia Kunming mouse model assessed as appearance of clear tubular structures at 20 mg/kg, po administered via gavage and measured after 21 days by hematoxylin-eosin and Masson trichrome staining based optical microscopic analysis. The test is classed as functional, organism-based. The following applies: time 21.0 day.

In test [8] the test system is Mus musculus. Description: Nephroprotective activity against adenine and potassium oxonate-induced hyperuricemia Kunming mouse model assessed as reduction in connective tissue hyperplasia at 20 mg/kg, po administered via gavage and measured after 21 days by hematoxylin-eosin and Masson trichrome staining based optical microscopic analysis. The test is classed as functional, organism-based. To be noted: time 21.0 day.

For test [9], the system named is Mus musculus. Description: Nephroprotective activity against adenine and potassium oxonate-induced hyperuricemia Kunming mouse model assessed as reduction in neutrophils infiltrations at 20 mg/kg, po administered via gavage and measured after 21 days by hematoxylin-eosin and Masson trichrome staining based optical microscopic analysis. Format: functional, organism-based. To be noted: time 21.0 day.

Test [10] has as its system Mus musculus. Kind of test: Nephroprotective activity against adenine and potassium oxonate-induced hyperuricemia Kunming mouse model assessed as reduction in tubular-interstitial lesion development at 20 mg/kg, po administered via gavage and measured after 21 days by hematoxylin-eosin and Masson trichrome staining based optical microscopic analysis. The test is classed as functional, organism-based. To be noted: time 21.0 day.

For test [11], the system named is Mus musculus. Kind of test: Anti-hyperuricemic activity against adenine and potassium oxonate-induced hyperuricemia Kunming mouse model assessed as reduction in serum uric acid level at 200 mg/kg, po administered via gavage once daily for 2 weeks (reference value: 318.16 +/- 3.31 uM). The test is classed as functional.
Test [12] has as its system Mus musculus. Kind of test: Anti-hyperuricemic activity against adenine and potassium oxonate-induced hyperuricemia Kunming mouse model assessed as reduction in serum creatinine level at 200 mg/kg, po administered via gavage once daily for 2 weeks (reference value: 87.62 +/- 0.67 uM). Format: functional.
In test [13] the test system is Mus musculus. Description: Anti-hyperuricemic activity against adenine and potassium oxonate-induced hyperuricemia Kunming mouse model assessed as blood urea nitrogen level at 200 mg/kg, po administered via gavage once daily for 2 weeks (reference value: 9.88 +/- 1.21 mM). Format: functional.
The subject of test [14] is HK-2. Kind of test: Antiinflammatory activity in hyperuricemic human HK-2 cells assessed as reduction in TGF-beta level at 200 uM. The test is classed as functional, cell-based.
In test [15] the test system is HK-2. Description: Antiinflammatory activity in hyperuricemic human HK-2 cells assessed as reduction in TNF-alpha level at 200 uM. The test is classed as functional, cell-based.
In test [16] the test system is HK-2. Description: Antiinflammatory activity in hyperuricemic human HK-2 cells assessed as reduction in IL-1beta level at 200 uM. Format: functional, cell-based.
For test [17], the system named is Mus musculus. Description: Anti-hyperuricemic activity against adenine and potassium oxonate-induced hyperuricemia Kunming mouse model assessed as reduction in serum uric acid level at 20 mg/kg, po administered via gavage once daily for 4 weeks (reference value: 356.15 +/- 3.31 uM). Format: functional.
Test [18] has as its system Mus musculus. Description: Anti-hyperuricemic activity against adenine and potassium oxonate-induced hyperuricemia Kunming mouse model assessed as reduction in creatinine level at 20 mg/kg, po administered via gavage once daily for 4 weeks (reference value: 76.87 +/- 0.67 uM). Format: functional.
The test system of test [19] is Mus musculus. Kind of test: Anti-hyperuricemic activity against adenine and potassium oxonate-induced hyperuricemia Kunming mouse model assessed as blood urea nitrogen level at 20 mg/kg, po administered via gavage once daily for 4 weeks (reference value: 15.25 +/- 1.21 mM). The test is classed as functional.
Test [20] deals with Mus musculus. Kind of test: Renal protective activity against adenine and potassium oxonate-induced hyperuricemia Kunming mouse model assessed as reduction in urate accumulation in kidney at 20 mg/kg, po administered via gavage for 2 weeks by polarization microscopic analysis. Format: functional, organism-based.
Test [21] is filed under the species Mus musculus. To be noted: Kunming, dose 20.0 mg/kg, route po, time 2.0 weeks.
Description: In vivo inhibition of XOD in adenine and potassium oxonate-induced hyperuricemia Kunming mouse model assessed as reduction in XOD activity in liver at 20 mg/kg, po administered via gavage once daily for 2 weeks

Xanthine dehydrogenase/oxidase, sequence (P80457 whole entry): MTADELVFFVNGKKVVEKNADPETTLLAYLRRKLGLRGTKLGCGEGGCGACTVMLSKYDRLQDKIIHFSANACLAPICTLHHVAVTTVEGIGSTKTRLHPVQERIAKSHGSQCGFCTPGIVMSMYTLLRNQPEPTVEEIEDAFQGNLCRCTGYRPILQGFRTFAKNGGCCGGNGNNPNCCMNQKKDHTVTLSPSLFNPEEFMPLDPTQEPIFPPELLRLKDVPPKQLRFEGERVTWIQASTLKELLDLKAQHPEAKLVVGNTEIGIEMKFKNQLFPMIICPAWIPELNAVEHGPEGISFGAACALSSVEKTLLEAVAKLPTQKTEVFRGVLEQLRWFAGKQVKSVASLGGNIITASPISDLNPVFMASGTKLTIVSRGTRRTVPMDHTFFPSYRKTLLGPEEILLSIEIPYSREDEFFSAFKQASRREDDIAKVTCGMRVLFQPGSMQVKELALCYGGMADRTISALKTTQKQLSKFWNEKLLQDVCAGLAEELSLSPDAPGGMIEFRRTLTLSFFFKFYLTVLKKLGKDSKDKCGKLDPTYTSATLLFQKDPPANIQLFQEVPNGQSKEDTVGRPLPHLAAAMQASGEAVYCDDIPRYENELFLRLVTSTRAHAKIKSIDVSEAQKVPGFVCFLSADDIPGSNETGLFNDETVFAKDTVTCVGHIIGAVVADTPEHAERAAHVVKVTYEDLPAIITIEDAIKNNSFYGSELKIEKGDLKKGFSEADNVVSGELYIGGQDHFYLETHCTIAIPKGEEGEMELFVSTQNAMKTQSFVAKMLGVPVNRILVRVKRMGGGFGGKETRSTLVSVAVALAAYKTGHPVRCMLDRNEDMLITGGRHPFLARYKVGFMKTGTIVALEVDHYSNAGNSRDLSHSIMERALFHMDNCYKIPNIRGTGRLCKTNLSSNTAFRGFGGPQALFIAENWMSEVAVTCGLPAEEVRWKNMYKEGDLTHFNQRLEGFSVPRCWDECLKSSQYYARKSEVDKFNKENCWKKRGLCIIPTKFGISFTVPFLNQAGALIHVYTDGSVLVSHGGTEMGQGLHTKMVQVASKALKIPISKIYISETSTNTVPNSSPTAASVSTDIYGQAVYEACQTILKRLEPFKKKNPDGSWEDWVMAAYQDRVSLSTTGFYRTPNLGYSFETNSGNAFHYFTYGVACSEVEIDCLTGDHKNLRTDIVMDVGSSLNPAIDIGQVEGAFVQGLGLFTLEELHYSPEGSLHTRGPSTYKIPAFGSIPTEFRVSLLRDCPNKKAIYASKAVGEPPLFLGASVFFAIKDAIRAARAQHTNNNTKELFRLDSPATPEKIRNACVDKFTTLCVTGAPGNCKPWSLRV

A word on the IC50: it is the midpoint of a concentration-inhibition curve. On to `CC(=O)OCC1=CC[C@@H]2C(C(=O)Nn3cccc3)=CO[C@@H](O[C@@H]3O[C@H](COC(C)=O)[C@@H](OC(C)=O)[C@H](OC(C)=O)[C@H]3OC(C)=O)[C@H]12`, for which, in test [1], the IC50 worked out at 2.15 µM. The Activity in the test on Mus musculus [2] was 263.03 µM; with Mus musculus [3], 65.57 µM; in the test on Mus musculus [4] it was 6.42 mM. The outcome with Mus musculus [5], in the test on Mus musculus [6], in the test with Mus musculus [7], in the test on Mus musculus [8], in the test with Mus musculus [9] and in the test with Mus musculus [10] was Active.
`COC(=O)C1=CO[C@@H](O[C@@H]2O[C@H](CO)[C@@H](O)[C@H](O)[C@H]2O)[C@@H]2C(CO)=CC[C@H]12` [GENIPOSIDE]: the 50% inhibitory concentration (IC50) in [1] was 161 µM. Moreover, the values for the Activity in the test with Mus musculus [11], in the test with Mus musculus [12] and in the test on Mus musculus [13] were 236.72 µM, 75.09 µM and 7 mM, respectively. The outcome in the test with HK-2 [14], with HK-2 [15] and in the test on HK-2 [16] was Active.
As for `Oc1ncnc2[nH]ncc12` [ALLOPURINOL], the Activity worked out at 233.62 µM in the test with Mus musculus [2]; 63.31 µM with Mus musculus [3]; 6.3 mM with Mus musculus [4]; 193.68 µM in the test with Mus musculus [17]; 47.26 µM in the test on Mus musculus [18]; 12.58 mM with Mus musculus [19]. The outcome with Mus musculus [20] was Active. Further, the inhibition result in the test listed under Mus musculus [21] was “Active”.
For `COC(=O)C1=COC(OC(=O)Nc2ccc(C)cc2)[C@@H]2C(COC(=O)Nc3ccc(C)cc3)=CC[C@H]12` (stereo not given in full), in test [1], the IC50 was 73.6 µM.
On to `CC(=O)OCC1=CC[C@@H]2C(C(=O)Nc3cncc4ccccc34)=CO[C@@H](O[C@@H]3O[C@H](COC(C)=O)[C@@H](OC(C)=O)[C@H](OC(C)=O)[C@H]3OC(C)=O)[C@H]12`, for which, in [1], the IC50 was determined as 18.5 µM.
Consider `CC(=O)OCC1=CC[C@@H]2C(C(=O)Sc3cccs3)=CO[C@@H](O[C@@H]3O[C@H](COC(C)=O)[C@@H](OC(C)=O)[C@H](OC(C)=O)[C@H]3OC(C)=O)[C@H]12`, for which, in test [1], the IC50 was determined as 22.8 µM.
In the case of `COC(=O)C1=COC(OC(=O)NC(C)C)[C@@H]2C(COC(=O)NC(C)C)=CC[C@H]12` (stereo not given in full), the IC50 in [1] is 80.2 µM.
Consider `COC(=O)C1=COC(OC(=O)NC(C)(C)C)[C@@H]2C(COC(=O)NC(C)(C)C)=CC[C@H]12` (stereo not given in full), for which the IC50 in [1] worked out at 104 µM.
Regarding `CC(=O)OCC1=CC[C@@H]2C(C(=O)On3cccn3)=CO[C@@H](O[C@@H]3O[C@H](COC(C)=O)[C@@H](OC(C)=O)[C@H](OC(C)=O)[C@H]3OC(C)=O)[C@H]12`, the IC50 in test [1] stood at 8.74 µM.
`CC(=O)OCC1=CC[C@@H]2C(C(=O)Sc3ncc[nH]3)=CO[C@@H](O[C@@H]3O[C@H](COC(C)=O)[C@@H](OC(C)=O)[C@H](OC(C)=O)[C@H]3OC(C)=O)[C@H]12`: in test [1], the IC50 is 87.5 µM.
For `CC(=O)OCC1=CC[C@@H]2C(C(=O)Oc3cncc4ccccc34)=CO[C@@H](O[C@@H]3O[C@H](COC(C)=O)[C@@H](OC(C)=O)[C@H](OC(C)=O)[C@H]3OC(C)=O)[C@H]12`, the IC50 in test [1] is 30.7 µM.
In the case of `CC(=O)OCC1=CC[C@@H]2C(C(=O)Sc3ccncc3)=CO[C@@H](O[C@@H]3O[C@H](COC(C)=O)[C@@H](OC(C)=O)[C@H](OC(C)=O)[C@H]3OC(C)=O)[C@H]12`, the IC50 in [1] amounted to 20.5 µM.
As to `CC(=O)OCC1=CC[C@@H]2C(C(=O)Nc3ccc(Br)c4ccccc34)=CO[C@@H](O[C@@H]3O[C@H](COC(C)=O)[C@@H](OC(C)=O)[C@H](OC(C)=O)[C@H]3OC(C)=O)[C@H]12`, in test [1], the half-inhibitory concentration (IC50) turned out to be 4.14 µM. For the same compound, the Activity in the test on Mus musculus [2] was determined as 242.83 µM; in the test on Mus musculus [3], 57.83 µM; with Mus musculus [4] it was 6.02 mM. The result in the test with Mus musculus [5], with Mus musculus [6], in the test with Mus musculus [7], in the test with Mus musculus [8], in the test with Mus musculus [9] and with Mus musculus [10] was Active.
As to `CC(=O)OCC1=CC[C@@H]2C(C(=O)Oc3ccncc3)=CO[C@@H](O[C@@H]3O[C@H](COC(C)=O)[C@@H](OC(C)=O)[C@H](OC(C)=O)[C@H]3OC(C)=O)[C@H]12`, in test [1], the IC50 is 9.15 µM.
On to `CC(=O)OCC1=CC[C@@H]2C(C(=O)O)=CO[C@@H](O[C@@H]3O[C@H](COC(C)=O)[C@@H](OC(C)=O)[C@H](OC(C)=O)[C@H]3OC(C)=O)[C@H]12`, for which, in test [1], the IC50 came out at 35.3 µM.
For `CC(=O)OCC1=CC[C@@H]2C(C(=O)Nc3ccc(C#N)cc3)=CO[C@@H](O[C@@H]3O[C@H](COC(C)=O)[C@@H](OC(C)=O)[C@H](OC(C)=O)[C@H]3OC(C)=O)[C@H]12`, the IC50 in test [1] was 1.86 µM. The Activity in the test with Mus musculus [2] is 244.57 µM; in the test on Mus musculus [3], 89.09 µM; with Mus musculus [4] it was 7.29 mM. The outcome in the test with Mus musculus [5], in the test on Mus musculus [6], in the test with Mus musculus [7], in the test on Mus musculus [8], in the test with Mus musculus [9] and with Mus musculus [10] was Active.
For the compound `CC(C)(C)C(=O)OCC1=CC[C@@H]2C(C(=O)O)=CO[C@@H](O[C@@H]3O[C@H](COC(=O)C(C)(C)C)[C@@H](OC(=O)C(C)(C)C)[C@H](OC(=O)C(C)(C)C)[C@H]3OC(=O)C(C)(C)C)[C@H]12`, the half-maximal inhibitory concentration (IC50) in [1] worked out at 91.2 µM.
Take `CC(=O)OCC1=CC[C@@H]2C(C(=O)Nc3nn[nH]n3)=CO[C@@H](O[C@@H]3O[C@H](COC(C)=O)[C@@H](OC(C)=O)[C@H](OC(C)=O)[C@H]3OC(C)=O)[C@H]12`: the IC50 in [1] was 63.9 µM.
The same measure, in the same setting: next, `CC(=O)OCC1=CC[C@@H]2C(C(=O)Nc3ccc(C(=O)O)cc3)=CO[C@@H](O[C@@H]3O[C@H](COC(C)=O)[C@@H](OC(C)=O)[C@H](OC(C)=O)[C@H]3OC(C)=O)[C@H]12`: 32.4 µM; `CC(=O)OCC1=CC[C@@H]2C(C(=O)Oc3cccc(C#N)c3)=CO[C@@H](O[C@@H]3O[C@H](COC(C)=O)[C@@H](OC(C)=O)[C@H](OC(C)=O)[C@H]3OC(C)=O)[C@H]12`: 5.15 µM.
